Reference: ChEMBL document CHEMBL1201862, “PubChem BioAssay data set” (2004)
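48-hour exposure; five concentrations; linearly interpolated endpoints. GI50 marks 50% less growth.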 Active and inactive are the calls of the source. Cut-off read from the data, not from the text of the source: active = GI50 up to about 1.1 µM and inactive = higher. Residues, ends and D or L forms follow the SMILES beside them. Groups on a side chain read outwards from the residue. *: point of attachment. Cbz = O=C(OCc1ccccc1)*; Boc = CC(C)(C)OC(=O)*

Experiments:
Test in all cases: NCI-60 cell line screen, 48 h
UACC-257 = test system: UACC-257
RPMI-8226 = test system: RPMI-8226
CCRF-CEM = test system: CCRF-CEM
SK-OV-3 = test system: SK-OV-3
MDA-MB-231 = test system: MDA-MB-231
SN12C = test system: SN12C
UO-31 = test system: UO-31
SF-295 = test system: SF-295
IGROV-1 = test system: IGROV-1
RXF 393 = test system: RXF 393
MOLT-4 = test system: MOLT-4
HOP-92 = test system: HOP-92
HL-60 = test system: HL-60
PC-3 = test system: PC-3
SK-MEL-5 = test system: SK-MEL-5
HT-29 = test system: HT-29
NCI-H226 = test system: NCI-H226
U-251 = test system: U-251
HCC 2998 = test system: HCC 2998
SR = test system: SR

Measured: GI50

CC1=NNC(=O)C1C1C=C(c2c[nH]c3ccccc23)OC1=O (stereo unspecified)
inactive: UACC-257 > 100 µM | RPMI-8226 39.8 µM | CCRF-CEM 59.6 µM | SK-OV-3 > 100 µM | MDA-MB-231 > 100 µM | SN12C > 100 µM | UO-31 > 100 µM | SF-295 > 100 µM | IGROV-1 37 µM | RXF 393 > 100 µM | MOLT-4 > 100 µM | HOP-92 > 100 µM | HL-60 > 100 µM | PC-3 > 100 µM | SK-MEL-5 > 100 µM | HT-29 > 100 µM | NCI-H226 > 100 µM | U-251 > 100 µM

COc1cccc(OCC(=N/NC(=O)c2ccncc2)/N=C/c2cccnc2)c1
inactive: UACC-257 > 100 µM | RPMI-8226 68.2 µM | CCRF-CEM > 100 µM | SK-OV-3 > 100 µM | MDA-MB-231 > 100 µM | SF-295 > 100 µM | IGROV-1 > 100 µM | RXF 393 > 100 µM | MOLT-4 49.7 µM | HOP-92 21 µM | HL-60 > 100 µM | PC-3 > 100 µM | HT-29 > 100 µM | NCI-H226 > 100 µM | U-251 > 100 µM | HCC 2998 > 100 µM

COc1nc(O)nc2c1C(c1ccc([N+](=O)[O-])cc1)c1c(OC)nc(O)nc1O2
inactive: UACC-257 > 100 µM | RPMI-8226 > 100 µM | CCRF-CEM > 100 µM | SK-OV-3 > 100 µM | MDA-MB-231 > 100 µM | SN12C > 100 µM | UO-31 > 100 µM | SF-295 > 100 µM | IGROV-1 > 100 µM | RXF 393 > 100 µM | MOLT-4 > 100 µM | HL-60 > 100 µM | PC-3 > 100 µM | SK-MEL-5 > 100 µM | HT-29 > 100 µM | NCI-H226 > 100 µM | U-251 > 100 µM

S=C(/N=c1\sc(NCc2ccccc2)nc2sc3c(c12)CCN(N1CCc2c(sc4nc(NCc5ccccc5)s/c(=N\C(=S)NCc5ccccc5)c24)C1)C3)NCc1ccccc1
inactive: UACC-257 21.5 µM | RPMI-8226 14.6 µM | CCRF-CEM 2.56 µM | SK-OV-3 53.2 µM | MDA-MB-231 8.32 µM | SN12C 16.2 µM | UO-31 15.4 µM | SF-295 59.3 µM | IGROV-1 28 µM | RXF 393 36.1 µM | MOLT-4 14.3 µM | HOP-92 39.4 µM | HL-60 25.4 µM | PC-3 17 µM | SK-MEL-5 87.5 µM | HT-29 22.6 µM | NCI-H226 49.9 µM | U-251 10.5 µM | HCC 2998 44.7 µM

CC(C)(C)/C(=N\Nc1nc2ccccc2[nH]1)c1ccccn1
inactive: UACC-257 > 100 µM | RPMI-8226 12.9 µM | CCRF-CEM 46.1 µM | SK-OV-3 > 100 µM | MDA-MB-231 > 100 µM | SN12C > 100 µM | UO-31 42.9 µM | IGROV-1 80.7 µM | RXF 393 > 100 µM | MOLT-4 59.6 µM | HOP-92 24.9 µM | PC-3 81.5 µM | SK-MEL-5 87.9 µM | HT-29 26.2 µM | SR > 100 µM | NCI-H226 > 100 µM | U-251 > 100 µM

COC(=O)c1cccc(COc2ccc([N+](=O)[O-])cc2Cl)c1
inactive: UACC-257 > 100 µM | RPMI-8226 89.7 µM | CCRF-CEM 63.4 µM | SK-OV-3 > 100 µM | MDA-MB-231 82.8 µM | SN12C 49 µM | UO-31 98.9 µM | SF-295 > 100 µM | IGROV-1 > 100 µM | RXF 393 > 100 µM | MOLT-4 > 100 µM | HOP-92 44.5 µM | PC-3 > 100 µM | SK-MEL-5 51.1 µM | HT-29 > 100 µM | SR > 100 µM | NCI-H226 43.2 µM | U-251 83.2 µM

Cc1nc2c(=S)n(C)ncc2[nH]1
inactive: UACC-257 > 100 µM | RPMI-8226 > 100 µM | CCRF-CEM > 100 µM | SK-OV-3 > 100 µM | MDA-MB-231 > 100 µM | SN12C > 100 µM | UO-31 > 100 µM | SF-295 > 100 µM | IGROV-1 > 100 µM | MOLT-4 > 100 µM | HL-60 > 100 µM | PC-3 > 100 µM | SK-MEL-5 > 100 µM | HT-29 > 100 µM | NCI-H226 > 100 µM | U-251 > 100 µM | HCC 2998 > 100 µM

CC(C)(C)OC(=O)NC(CCCCNC(=O)CNC(=O)OCc1ccccc1)C(=O)NC(CCCCNC(=O)CNC(=O)OCc1ccccc1)C(=O)NC(CCCCNC(=O)CNC(=O)OCc1ccccc1)C(=O)NC(CCCCNC(=O)CNC(=O)OCc1ccccc1)C(=O)O (stereo unspecified) (Boc-K([Gly-Cbz])K([Gly-Cbz])K([Gly-Cbz])K([Gly-Cbz])-OH; configuration not given here)
inactive: UACC-257 > 100 µM | RPMI-8226 > 100 µM | CCRF-CEM > 100 µM | MDA-MB-231 > 100 µM | SN12C > 100 µM | UO-31 > 100 µM | IGROV-1 > 100 µM | MOLT-4 > 100 µM | HL-60 > 100 µM | PC-3 > 100 µM | SK-MEL-5 > 100 µM | HT-29 > 100 µM | SR > 100 µM | NCI-H226 > 100 µM | U-251 > 100 µM | HCC 2998 > 100 µM

N#C/C(=C\c1cn(Cc2ccccc2)c2ccccc12)c1nn(-c2ccccc2)c(N)c1C#N
inactive: UACC-257 20.1 µM | RPMI-8226 19.8 µM | CCRF-CEM 19.1 µM | SK-OV-3 15.2 µM | MDA-MB-231 4.13 µM | SN12C 15.3 µM | UO-31 12.9 µM | SF-295 11.1 µM | IGROV-1 12.8 µM | RXF 393 4.81 µM | MOLT-4 26.1 µM | HOP-92 8.41 µM | HL-60 41.5 µM | PC-3 8.22 µM | SK-MEL-5 11 µM | HT-29 11.3 µM | SR 24.7 µM | U-251 13.6 µM

O=CC(NC(=O)N(CCCl)N=O)C(O)C(O)C(O)CO (stereo unspecified)
inactive: UACC-257 1050 µM | RPMI-8226 851 µM | CCRF-CEM 348 µM | SK-OV-3 > 1160 µM | MDA-MB-231 > 1100 µM | SN12C 902 µM | UO-31 > 1200 µM | SF-295 81.7 µM | IGROV-1 1000 µM | RXF 393 1150 µM | MOLT-4 159 µM | HL-60 287 µM | PC-3 > 1250 µM | SK-MEL-5 425 µM | HT-29 > 1250 µM | SR 78.7 µM | NCI-H226 1240 µM | U-251 179 µM | HCC 2998 > 1030 µM

O=CNNC(=O)Nc1cccc2ccccc12
inactive: UACC-257 > 100 µM | RPMI-8226 > 100 µM | CCRF-CEM > 100 µM | SK-OV-3 > 100 µM | MDA-MB-231 > 100 µM | SN12C > 100 µM | UO-31 > 100 µM | SF-295 > 100 µM | IGROV-1 > 100 µM | RXF 393 > 100 µM | MOLT-4 > 100 µM | HOP-92 > 10 µM | HL-60 > 100 µM | SK-MEL-5 > 100 µM | HT-29 > 100 µM | SR > 100 µM | NCI-H226 67.1 µM | U-251 > 100 µM | HCC 2998 > 100 µM

CC(=O)Nc1ccc2c(c1)[nH]c(=O)c1cc(Cl)ccc12
inactive: UACC-257 20.3 µM | SK-OV-3 34.8 µM | MDA-MB-231 44.8 µM | SN12C 43.5 µM | UO-31 18.2 µM | SF-295 35.1 µM | IGROV-1 6.75 µM | MOLT-4 2.23 µM | HL-60 21.1 µM | SK-MEL-5 15.9 µM | HT-29 15.4 µM | SR 3.2 µM | NCI-H226 10.2 µM | U-251 34.3 µM | HCC 2998 38.5 µM
active: CCRF-CEM 0.341 µM

COc1ccccc1C(=O)N(Cc1ccccc1)c1ccc(Cl)c(C(=O)OC(C)C)c1
inactive: UACC-257 14.6 µM | RPMI-8226 5.69 µM | CCRF-CEM 35.5 µM | SK-OV-3 25.4 µM | MDA-MB-231 25.9 µM | SN12C 27.6 µM | UO-31 7.71 µM | SF-295 14.3 µM | IGROV-1 25.8 µM | RXF 393 11.8 µM | MOLT-4 14.4 µM | HOP-92 6.67 µM | HL-60 9.4 µM | PC-3 7.53 µM | SK-MEL-5 11.7 µM | HT-29 16.6 µM | NCI-H226 13.6 µM | U-251 36.6 µM | HCC 2998 18.2 µM

C[C@]12CC[C@@H]3c4ccc(O)cc4CC[C@H]3[C@@H]1CC[C@@H]2OC(=O)CCc1ccccc1
inactive: UACC-257 17.9 µM | RPMI-8226 15.7 µM | CCRF-CEM 22.5 µM | SK-OV-3 15.5 µM | MDA-MB-231 17.1 µM | SN12C 22.9 µM | UO-31 16 µM | SF-295 19.3 µM | IGROV-1 20.8 µM | RXF 393 16.4 µM | MOLT-4 17 µM | HOP-92 19.1 µM | HL-60 20.1 µM | PC-3 18.3 µM | SK-MEL-5 17.1 µM | HT-29 19.6 µM | NCI-H226 19.1 µM | U-251 18.7 µM | HCC 2998 19.6 µM

COc1c(N2CCCCC2)c2c(=O)c3ccccc3oc2c2c3ccccc3n(C)c12
inactive: UACC-257 > 100 µM | RPMI-8226 47.1 µM | CCRF-CEM 64.3 µM | SK-OV-3 > 100 µM | MDA-MB-231 > 100 µM | SN12C 47.6 µM | UO-31 > 100 µM | SF-295 > 100 µM | RXF 393 94.6 µM | MOLT-4 54.8 µM | HOP-92 > 100 µM | HL-60 57.3 µM | PC-3 > 100 µM | SK-MEL-5 > 100 µM | HT-29 42.4 µM | NCI-H226 > 100 µM | U-251 > 100 µM | HCC 2998 > 100 µM
